How the values were obtained:
[1] = Optical clarity of model beverage system containing SFAE/carotenoid composition (% transmittance at 800 nm); format: physicochemical; details: liquid conc. product 20% L-1695 ester
Protocol: (§1) Optical clarity was examined using SFAE/carotenoid liquid compositions in potable water and a model beverage system. The SFAE/carotenoid dry composition are used in a model beverage system. Liquid SFAE/carotenoid compositions were made by slowly mixing the appropriate weight percent of SFAE into the water until dissolved (Tables 2-5). At this point, the carotenoid was mixed into the SFAE/water mixture until evenly dispersed. The dry SFAE/lutein composition was prepared by removing the water from the liquid SFAE/lutein composition using a horizontal wiped film evaporator until the total moisture was less than 1%. These SFAE/carotenoid compositions were added either to potable water or to the model beverage system. The optical clarity was measured using a Hewlett Packard UV-Visible Spectrophotometer Model 8453. The instrument was blanked with water for the water trial and control beverage for the beverage trials. A quartz cuvette having a 1 cm path length is rinsed three times with the sample and then the transmittance at 800 nm is read from the spectrophotometer.

[2] = Optical clarity of water containing SFAE/carotenoid composition (% transmittance at 800 nm); format: physicochemical; details: liquid conc. product 20% L-1695 ester
Protocol: as §1

[3] = test system: age-related macular degeneration; details: consumption of lutein and zeaxanthin together; cited from earlier work
[4] = Stability against ringing and settling of SFAE/carotenoid compositions in model beverage system; format: physicochemical; details: 3 mg carotenoid/8 fl. oz. serving, 20% SFAE/1% lycopene
From the text: The objective of this experiment was to determine the stability of a sucrose fatty acid ester/carotenoid suspension in aqueous compositions. For the purposes of this discussion, stability will be defined as the resistance to produce a deposit of the carotenoid around the perimeter of the container in the region of the surface of the beverage (ringing). There are several factors that may affect the stability against ringing in aqueous compositions. It is possible that an optimal level of SFAE is required to keep the carotenoid in the suspension. The hydrophilic/lipophilic balance (HLB) of the SFAE may affect the interaction of the carotenoids with the aqueous composition. Additionally, the inclusion level of the SFAE/carotenoid suspension may determine the stability against ringing. […] These factors have been examined to determine whether there are optimal levels of SFAE and carotenoids that contribute to the stability against ringing. Stability against ringing was examined using SFAE/carotenoid liquid compositions in potable water and a model beverage system. The SFAE/carotenoid dry composition was used in a model beverage system. Liquid SFAE/carotenoid compositions were made by slowly mixing the appropriate weight percent of SFAE into the water until dissolved (Table 6). At this point the carotenoid was mixed into the SFAE/water mixture until evenly dispersed. […]

[5] = 0.5 mg carotenoid/8 oz serving, 5% carotenoid
[6] = 3.0 mg carotenoid/8 oz serving, 5% carotenoid
[7] = 1.5 mg carotenoid/8 oz serving, 5% carotenoid
[8] = 0.5 mg carotenoid/8 oz serving, 1% carotenoid
[9] = 3.0 mg carotenoid/8 oz serving, 1% carotenoid

Optical Clarity [1, 5] | Optical Clarity [1, 6] | Optical Clarity [2, 5] | Optical Clarity [2, 7] | Optical Clarity [2, 6] | Optical Clarity [1, 8] | Optical Clarity [1, 9] | Optical Clarity [2, 8] | Optical Clarity ([2]; 1.5 mg carotenoid/8 oz serving, 1% carotenoid) | Optical Clarity [2, 9] | settling (in words) [4] | Compound | reduction in age-related macular degeneration [3]
97.609 % transmittance at 800 nm | 83.017 % transmittance at 800 nm | 104.73 % transmittance at 800 nm | 101.01 % transmittance at 800 nm | 93.735 % transmittance at 800 nm | – | – | – | – | – | – | CC1=C[C@H](O)CC(C)(C)[C@H]1/C=C/C(C)=C/C=C/C(C)=C/C=C/C=C(C)/C=C/C=C(C)/C=C/C1=C(C)C[C@@H](O)CC1(C)C [lutein, Lutein] | 57%
– | – | – | – | – | 94.934 % transmittance at 800 nm | 50.180 % transmittance at 800 nm | 97.989 % transmittance at 800 nm | 88.387 % transmittance at 800 nm | 72.401 % transmittance at 800 nm | considerable amount of settling | CC(C)=CCC/C(C)=C/C=C/C(C)=C/C=C/C(C)=C/C=C/C=C(C)/C=C/C=C(C)/C=C/C=C(\C)CCC=C(C)C [lycopene, Lycopene] | –
99.102 % transmittance at 800 nm | 87.707 % transmittance at 800 nm | 98.213 % transmittance at 800 nm | 95.692 % transmittance at 800 nm | 94.110 % transmittance at 800 nm | – | – | – | – | – | – | CC1=C(/C=C/C(C)=C/C=C/C(C)=C/C=C/C=C(C)/C=C/C=C(C)/C=C/C2=C(C)C[C@@H](O)CC2(C)C)C(C)(C)C[C@H](O)C1 [zeaxanthin, Zeaxanthin] | 57%
99.314 % transmittance at 800 nm | 89.643 % transmittance at 800 nm | 96.759 % transmittance at 800 nm | 94.275 % transmittance at 800 nm | 87.407 % transmittance at 800 nm | – | – | – | – | – | – | CC1=C(/C=C/C(C)=C/C=C/C(C)=C/C=C/C=C(C)/C=C/C=C(C)/C=C/C2=C(C)CCCC2(C)C)C(C)(C)CCC1 [β-carotene, β-Carotene] | –

Source: patent US6635293B2, “Finely dispersed carotenoid suspensions for use in foods and a process for their preparation” (Kemin Foods, L.C., priority 2001, dated 2003)
